Results as given in patent publication US20080269238A1, “Thiazolopyrimidine Derivative” (TAKEDA PHARMACEUTICAL COMPANY LIMITED, priority 2004, published 2008).

Target: T1, EGF receptor kinase (intracellular domain of EGF receptor) (Homo sapiens, UniProt P00533)
T1 construct: FLAG (N); made in house; host or cells: SF-21 insect cells infected with recombinant baculovirus BAC-EGFR
Assay: Measurement of inhibition activity of EGF receptor kinase
Format: biochemical
Conditions: EGFR kinase; test compound 1.0 μM; biotinyl-poly-Glu:Tyr (4:1), α-screen assay, 25° C. 10 minutes; read-out: Inhibition rate (%) in 1.0 μM
Protocol: Cloning of Human EGF Receptor Gene was performed with RT-PCR templating total RNA prepared from A431 cell. To attach Flag tag in N-terminal of EGF, a primer used in RT-PCR was manufactured by adding flag peptide coding sequence and restricted enzyme recognition sequence to the base sequence (2182-3810 in Genbank Accession XM—167493) which codes a part of intracellular domain of the protein using an information of base sequence of EGF receptor Gene (Genbank Accession XM—167493). The Base sequence of the primer was shown as below.
(§1) RT reaction was performed using a SuperScript First-Strand Synthesis system for RT-PCR (Invitrogen), and PCR reaction was performed using a KOD-plus kit (TOYOBO). The obtained PCR product was subjected to electrophoresis on agarose gel (1%), and digested with Sal I and Sph I after collecting a DNA fragment amplified by PCR from the gel. The DNA treated with restricted enzymes was subjected to electrophoresis on agarose gel (1%), the obtained DNA fragment was collected, and ligated to a plasmid pFASTBAC1 (Invitrogen) digested with restricted enzymes Sal I and Sph I, and expression plasmid pFB-HER2 was manufactured. Base sequence of inserted fragment was confirmed. As a result, the base sequence of inserted fragment was corresponded with base sequence of the intracellular domain of EGFR (pp. 2182-3810 in Genbank Accession XM—167493). Further, a recombinant baculovirus BAC-EGFR was prepared using BAC-TO-BAC Baculovirus Expression System (Invitrogen).
A SF-21 cell was plated with 1×10^6 cells/ml in a Sf-900II SFM medium (Invitrogen) containing 10% of a fetal bovine serum (Trace), 50 mg/L of Gentamicin (Invitrogen) and 0.1% of Pluronic F-68 (Invitrogen), and cultured with shaking at 27° C. at 100 rpm using a 2 L meyer. After culturing for 24 hours, 13.4 mL of a recombinant baculovirus EGFR was added thereto, and further cultured for 3 days. The cultured solution was centrifuged in 2,000 rpm for 5 minutes, and a virus-infected cell was obtained. The cell was washed with phosphate buffered saline (Invitrogen), centrifuged under the same condition, and then preserved at −80° C. The freezing preserved cell was melted on ice, suspended with 30 mL of a buffer A (50 mM of tris-buffer containing 20% of glycerol and 0.15M of NaCl (pH 7.4)) to which was added Complete Protease Inhibitor (Behringer), and crushed at 20,000 rpm for 30 seconds three times using Polytron homogenizer (Kinematica). The crushed solution was clarified by centrifugation at 40,000 rpm for 30 minutes, and filtered using a 45 μm filter. The filtrate was passed through a column which is filled with Anti-FLAG M2 Affinity Gel (Sigma Corp.) in a flow rate of about 0.5 mL/min. The column was washed with a buffer A, and eluted with a buffer containing 100 μg/ml of FLAG peptide. […]

T1 sequence (P00533 669-1210 limits assumed): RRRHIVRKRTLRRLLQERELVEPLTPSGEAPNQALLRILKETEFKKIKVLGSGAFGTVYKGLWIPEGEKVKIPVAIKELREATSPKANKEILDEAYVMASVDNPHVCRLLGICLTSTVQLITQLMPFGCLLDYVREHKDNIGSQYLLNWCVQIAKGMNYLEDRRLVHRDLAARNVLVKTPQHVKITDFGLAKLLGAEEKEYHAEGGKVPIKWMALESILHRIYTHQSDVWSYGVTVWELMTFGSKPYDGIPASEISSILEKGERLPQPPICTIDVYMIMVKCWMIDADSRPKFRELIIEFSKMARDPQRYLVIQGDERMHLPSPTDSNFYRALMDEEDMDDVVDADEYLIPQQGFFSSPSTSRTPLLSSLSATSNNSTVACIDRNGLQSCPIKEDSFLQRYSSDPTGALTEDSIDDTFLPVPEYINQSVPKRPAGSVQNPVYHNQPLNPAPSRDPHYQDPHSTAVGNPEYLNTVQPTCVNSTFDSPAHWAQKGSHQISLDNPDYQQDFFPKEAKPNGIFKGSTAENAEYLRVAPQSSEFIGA

Row | Structure (SMILES) | inhibition at 1 µM [%]
1 | COCCNC(=O)c1nc2c(Nc3ccc(OCc4cccc(F)c4)c(Cl)c3)ncnc2s1 [Example 20, 7-({3-chloro-4-[(3-fluorobenzyl)oxy]phenyl}amino)-N-(2-methoxyethyl) [1,3]thiazolo[5,4-d]pyrimidine-2-carboxamide] | 91
2 | CS(=O)(=O)CCNCCNC(=O)c1nc2c(Nc3ccc(OCc4cccc(F)c4)c(Cl)c3)ncnc2s1 [Example 25, 7-({3-chloro-4-[(3-fluorobenzyl)oxy]phenyl}amino)-N-(2-{[2-(methylsulfonyl)ethyl]amino}ethyl)[1,3]thiazolo[5,4-d]pyrimidine-2-carboxamide] | 88
3 | CC(=O)NCCCCCc1nc2c(Nc3ccc(OCc4cccc(F)c4)c(Cl)c3)ncnc2s1 [Example 46, N-{5-[7-({3-chloro-4-[(3-fluorobenzyl)oxy]phenyl}amino) [1,3]thiazolo[5,4-d]pyrimidin-2-yl]pentyl}acetamide] | 81
4 | Fc1cccc(COc2ccc(Nc3ncnc4sc(C5CC5)nc34)cc2Cl)c1 [Example 52, N-{3-chloro-4-[(3-fluorobenzyl)oxy]phenyl}-2-cyclopropyl[1,3]thiazolo[5,4-d]pyrimidin-7-amine] | 81

Target: T2, HER2 kinase (intracellular domain of HER2) (Homo sapiens, UniProt P04626)
T2 construct: FLAG (N); made in house; host or cells: SF-21 insect cells infected with recombinant baculovirus BAC-HER2
Assay: Measurement of inhibition activity of HER2 kinase
Format: biochemical
Conditions: test compound 1.0 μM, poly-Glu:Tyr(4:1) substrate, [γ-32P]ATP, 25° C. 10 minutes, read-out: Inhibition rate (%) in 1.0 μM
Protocol: Cloning of Human HER2 Gene was performed with RT-PCR templating total RNA prepared from MCF 7 cell. To attach Flag tag in N-terminal of HER2, a primer used in RT-PCR was manufactured by adding flag peptide coding sequence and restricted enzyme recognition sequence to the base sequence (2176-3918 in Genbank Accession M11730) which codes a part of intracellular domain of the protein using an information of base sequence of HER2 Gene (Genbank Accession M11730). Base sequence of the primer was shown as below.
as §1, with “I, resulting that” for “I, and”, “of the HER2” for “of EGFR”, “(pp. 2176-3918” for “(pp. 2182-3810”, “Accession M11730).” for “Accession XM—167493).”, “baculovirus BAC-HER2” for “baculovirus BAC-EGFR”
A SF-21 cell was plated with 1×10^6 cells/ml in a Sf-900II SFM medium (Invitrogen) containing 10% of fetal bovine serum (Trace), 50 mg/L of Gentamicin (Invitrogen) and 0.1% of Pluronic F-68 (Invitrogen), and cultured with shaking at 27° C. at 100 rpm using a 2 L meyer. After culturing for 24 hours, 13.4 ml of a recombinant baculovirus BAC-HER2 was added thereto, and further cultured for 3 days. The cultured solution was centrifuged at 2,000 rpm for 5 minutes, and a virus-infected cell was obtained. The cell was washed with phosphate buffered saline (Invitrogen), centrifuged under the same condition, and preserved at −80° C. The freezing preserved cell was melted on ice, suspended with 30 ml of a buffer A (50 mM of tris-buffer containing 20% of glycerol and 0.15M of NaCl (pH 7.4)) to which was added Complete Protease Inhibitor (Behringer), and crushed at 20,000 rpm for 30 seconds three times using Polytron homogenizer (Kinematica). The crushed solution was clarified by centrifugation at 40,000 rpm for 30 minutes, and filtered using a 45 μm filter. The filtrate was passed through a column filled with Anti-FLAG M2 Affinity Gel (Sigma Corp.) in a flow rate of about 0.5 mL/min. The column was washed with a buffer A, and eluted with a buffer A containing 100 μg/mL of FLAG peptide. The eluted solution was concentrated by Vivaspin 20 of MWCO (molecular weight of cut-off) 30K (Vivascience). This concentrated solution was gel-filtrated and purified by a Hi Load Superdex 200 pg 16/60 (Amersham Biosciences) equilibrated with the buffer A. The fraction containing the intracellular domain of HER2 was collected, and glycerol was added thereto to be a 50% of terminal concentration, and then freezing preserved at −80° C.
The test compound dissolved in dimethylsulfoxide (DMSO) was diluted with buffer for measuring the kinase reaction (50 mM of Tris-HCl (pH 7.5), 5 mM of MgCl2, 5 mM MnCl2, 2 mM of dithiothreitol, 0.01% of Tween-20). […]

T2 sequence (P04626 676-1255 limits assumed): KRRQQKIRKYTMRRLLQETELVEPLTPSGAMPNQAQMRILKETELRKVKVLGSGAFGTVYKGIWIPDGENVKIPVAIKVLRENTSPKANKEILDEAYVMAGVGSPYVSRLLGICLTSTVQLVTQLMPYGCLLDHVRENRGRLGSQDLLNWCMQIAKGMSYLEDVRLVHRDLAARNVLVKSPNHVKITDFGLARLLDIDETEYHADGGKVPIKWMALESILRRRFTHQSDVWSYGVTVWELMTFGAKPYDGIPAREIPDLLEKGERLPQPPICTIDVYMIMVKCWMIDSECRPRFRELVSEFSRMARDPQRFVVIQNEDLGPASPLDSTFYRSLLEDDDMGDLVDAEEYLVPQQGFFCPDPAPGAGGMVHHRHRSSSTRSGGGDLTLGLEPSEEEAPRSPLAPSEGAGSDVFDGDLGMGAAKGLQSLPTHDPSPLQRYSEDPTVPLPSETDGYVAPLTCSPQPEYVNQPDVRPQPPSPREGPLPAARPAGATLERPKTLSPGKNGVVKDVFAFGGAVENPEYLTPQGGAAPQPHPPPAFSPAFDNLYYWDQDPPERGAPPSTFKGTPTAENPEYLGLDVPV

Row | Structure (SMILES) | inhibition at 1 µM [%]
5 | OCCNCc1ccc(-c2nc3c(Nc4ccc(OCc5cccc(F)c5)c(Cl)c4)ncnc3s2)cc1 [Example 26, 2-({4-[7-({3-chloro-4-[(3-fluorobenzyl)oxy]phenyl}amino)[1,3]thiazolo[5,4-d]pyrimidin-2-yl]benzyl}amino)ethanol] | 92
6 | COCCNCc1ccc(-c2nc3c(Nc4ccc(F)c(Cl)c4)ncnc3s2)cc1 [Example 39, N-(3-chloro-4-fluorophenyl)-2-(4-{[(2-methoxyethyl)amino]methyl}phenyl) [1,3]thiazolo[5,4-d]pyrimidin-7-amine] | 96
7 | COCCNCCc1ccc(-c2nc3c(Nc4ccc(Oc5ccc(C)nc5)c(C)c4)ncnc3s2)cc1 [Example 41, 2-(4-{2-[(2-methoxyethyl)amino]ethyl}phenyl)-N-{3-methyl-4-[(6-methylpyridin-3-yl)oxy]phenyl}[1,3]thiazolo[5,4-d]pyrimidin-7-amine] | 89
8 | OCCNCc1ccc(-c2nc3c(Nc4ccc(Oc5cccc(C(F)(F)F)c5)c(Cl)c4)ncnc3s2)cc1 [Example 58, 2-({4-[7-({3-chloro-4-[3-(trifluoromethyl)phenoxy]phenyl}amino)[1,3]thiazolo[5,4-d]pyrimidin-2-yl]benzyl}amino)ethanol] | 90
9 | O=C(CO)NCc1ccc(-c2nc3c(Nc4ccc(OCc5ccsc5)c(Cl)c4)ncnc3s2)cc1 [Example 80, N-[4-(7-{[3-chloro-4-(3-thienylmethoxy)phenyl]amino}[1,3]thiazolo[5,-d]pyrimidin-2-yl)benzyl]-2-hydroxyacetamide] | 87
